Our source for the EC50 values is US12612407B2, “Imidazo[2,1-f][1,2,4]triazin-4-amine derivatives as TLR7 agonist” (BEIGENE, LTD., priority 2020, dated 2026).

The assay concerns the target T1, human TLR7 (Homo sapiens, UniProt Q9NYK1).
T1 construct: host or cells: HEK293 (HEK-Blue hTLR7)
T1 sequence (Q9NYK1 27-1049): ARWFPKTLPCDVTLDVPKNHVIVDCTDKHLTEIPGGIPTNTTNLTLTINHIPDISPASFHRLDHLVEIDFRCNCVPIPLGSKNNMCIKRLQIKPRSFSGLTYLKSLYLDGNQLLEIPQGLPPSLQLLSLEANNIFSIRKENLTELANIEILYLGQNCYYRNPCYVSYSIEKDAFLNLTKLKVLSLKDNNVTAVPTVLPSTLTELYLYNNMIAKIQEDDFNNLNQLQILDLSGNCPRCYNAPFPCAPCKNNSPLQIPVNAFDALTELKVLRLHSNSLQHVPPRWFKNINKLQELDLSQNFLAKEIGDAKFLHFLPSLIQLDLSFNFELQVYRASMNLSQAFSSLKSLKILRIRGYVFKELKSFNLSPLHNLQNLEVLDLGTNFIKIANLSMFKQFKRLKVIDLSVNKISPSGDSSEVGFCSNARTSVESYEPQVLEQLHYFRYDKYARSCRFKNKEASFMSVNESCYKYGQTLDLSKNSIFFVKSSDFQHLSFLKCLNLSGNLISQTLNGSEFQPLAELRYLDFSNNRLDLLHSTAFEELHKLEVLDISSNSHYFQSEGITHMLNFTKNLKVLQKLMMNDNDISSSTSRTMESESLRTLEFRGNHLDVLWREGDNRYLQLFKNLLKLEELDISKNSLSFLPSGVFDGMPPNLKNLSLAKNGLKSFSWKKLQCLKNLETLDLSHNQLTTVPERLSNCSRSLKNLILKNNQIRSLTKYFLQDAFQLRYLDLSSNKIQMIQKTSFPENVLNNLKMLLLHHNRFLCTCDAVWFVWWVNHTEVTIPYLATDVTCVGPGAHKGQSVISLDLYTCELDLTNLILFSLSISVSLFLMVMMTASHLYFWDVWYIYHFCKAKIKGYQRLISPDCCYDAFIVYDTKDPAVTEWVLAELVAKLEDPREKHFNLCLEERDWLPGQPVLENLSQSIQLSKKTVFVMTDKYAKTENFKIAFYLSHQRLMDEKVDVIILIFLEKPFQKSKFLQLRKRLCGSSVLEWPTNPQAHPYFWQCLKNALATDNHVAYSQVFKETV
Briefly: HEK293-Blue hTLR7 Reporter Assay (QUANTI-BLUE, SEAP readout). Type of assay: cell-based. Conditions: HEK-Blue-hTLR7 cells, 24 hrs treatment, Table 1, B1-B232. In a few lines: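 Compound titrations were applied for 24 h at 37° C to reporter HEK293 cells (4×10^4 per well) in which human TLR7 activation drives secreted alkaline phosphatase. Supernatants reacted with Quanti-blue 10-30 min, absorbance read at 620-655 nm, and EC50 derived by sigmoidal curve fitting.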

`CCCCOc1nc(N)c2ncc(Cc3cnc(N4CCC(N5CCN(C)CC5)CC4)c(C)c3)n2n1` [Compound B130, 2-butoxy-7-((5-methyl-6-(4-(4-methylpiperazin-1-yl)piperidin-1-yl)pyridin-3-yl)methyl)imidazo[2,1-f][1,2,4]triazin-4-amine]: a half-maximal response (EC50) required 38 nM.

Molecule “2-butyl-7-((5-methyl-6-(piperazin-1-yl)pyridin-3-yl)methyl)imidazo[2,1-f][1,2,4]triazine-2,4-diamine [Compound B13]” registered a half-maximal effective concentration (EC50) of 48 nM.

Turning to `CCC(CC)Nc1nc(N)c2ncc(Cc3cnc(N4CCNCC4)c(C)c3)n2n1` [Compound B210, 7-((5-methyl-6-(piperazin-1-yl)pyridin-3-yl)methyl)-N2-(pentan-3-yl)imidazo[2,1-f][1,2,4]triazine-2,4-diamine], a half-maximal effect (EC50) was put at 12 nM.

For `CCCCOc1nc(N)c2ncc(Cc3cnc(N4CCOCC4)c(C)c3)n2n1` [Compound B52, 2-butoxy-7-((5-methyl-6-morpholinopyridin-3-yl)methyl)imidazo[2,1-f][1,2,4]triazin-4-amine], the EC50 was over 10000 nM.

`CCCC(CC)Oc1nc(N)c2ncc(Cc3cnc(N4CCN(C(=O)CNC)CC4)c(C)c3)n2n1` (stereo not shown) [Compound B181, 1-(4-(5-((4-amino-2-(hexan-3-yloxy)imidazo[2,1-f][1,2,4]triazin-7-yl)methyl)-3-methylpyridin-2-yl)piperazin-1-yl)-2-(methylamino)ethan-1-one]: the concentration for a half-maximal effect (EC50) turned out to be 7.8 nM.

On to `CCCCOc1nc(N)c2ncc(Cc3cnc(N4CC5(CCNCC5)C4)c(C)c3)n2n1` [Compound B102, 2-butoxy-7-((5-methyl-6-(2,7-diazaspiro[3.5]nonan-2-yl)pyridin-3-yl)methyl)imidazo[2,1-f][1,2,4]triazin-4-amine], for which the half-maximal effective concentration (EC50) amounted to 464 nM.

`CCC(CC)Oc1nc(N)c2ncc(Cc3cnc(N4CCC(CN(C)C)CC4)c(C)c3)n2n1` [Compound B189, 7-((6-(4-((dimethylamino)methyl)piperidin-1-yl)-5-methylpyridin-3-yl)methyl)-2-(pentan-3-yloxy)imidazo[2,1-f][1,2,4]triazin-4-amine] returned a concentration giving a half-maximal response (EC50) of 19 nM.

For `CCCCOc1nc(N)c2ncc(Cc3ccc(N4CCNCC4)nc3C)n2n1` [Compound B53, 2-butoxy-7-((2-methyl-6-(piperazin-1-yl)pyridin-3-yl)methyl)imidazo[2,1-f][1,2,4]triazin-4-amine], the EC50 worked out at 803 nM.

`CCCCOc1nc(N)c2ncc(Cc3cnc(N4CCN(C(=O)CN)CC4)c(C)c3)n2n1` [Compound B24, 2-amino-1-(4-(5-((4-amino-2-butoxyimidazo[2,1-f][1,2,4]triazin-7-yl)methyl)-3-methylpyridin-2-yl)piperazin-1-yl)ethan-1-one]: the EC50 is 210 nM.

With `CCC(CC)Oc1nc(N)c2ncc(Cc3cnc(N4CCC(N(C)C)CC4)c(C)c3)n2n1` [Compound B187, 7-((6-(4-(dimethylamino)piperidin-1-yl)-5-methylpyridin-3-yl)methyl)-2-(pentan-3-yloxy)imidazo[2,1-f][1,2,4]triazin-4-amine], the EC50 was determined as 29 nM.

Take `CCC[C@@H](C)Oc1nc(N)c2ncc(Cc3cnc(N4CCC(N(C)C)CC4)c(C)c3)n2n1` [Compound B127, (R)-7-((6-(4-(dimethylamino)piperidin-1-yl)-5-methylpyridin-3-yl)methyl)-2-(pentan-2-yloxy)imidazo[2,1-f][1,2,4]triazin-4-amine]: the EC50 was 56 nM.

For the molecule `Cc1cc(Cc2cnc3c(N)nc(O)nn23)cnc1N1CCNCC1` [Compound B29, 4-amino-7-((5-methyl-6-(piperazin-1-yl)pyridin-3-yl)methyl)imidazo[2,1-f][1,2,4]triazin-2-ol], the 50% effective concentration (EC50) is over 10000 nM.

As to “2-butoxy-7-((5-(piperidin-4-yl)pyridin-2-yl)methyl)imidazo[2,1-f][1,2,4]triazin-4-amine [Compound B77]”, the EC50 came to 311 nM.

In turn, `Cc1cc(Cc2cnc3c(N)nc(OCCCc4ccccc4)nn23)cnc1N1CCNCC1` [Compound B31, 7-((5-methyl-6-(piperazin-1-yl)pyridin-3-yl)methyl)-2-(3-phenylpropoxy)imidazo[2,1-f][1,2,4]triazin-4-amine] registered a half-maximal effective concentration (EC50) of over 10000 nM.

In turn, `CCC[C@@H](C)Nc1nc(N)c2ncc(Cc3cnc(N4CCNCC4)c(C)c3)n2n1` (single isomer, unassigned) [Compound B207] had an EC50 of 56 nM.

For `CCCCOc1nc(N)c2ncc(Cc3cnc(N4CCCNCC4)c(C)c3)n2n1` [Compound B39, 7-((6-(1,4-diazepan-1-yl)-5-methylpyridin-3-yl)methyl)-2-butoxyimidazo[2,1-f][1,2,4]triazin-4-amine], the response was half-maximal at 465 nM (EC50).

As to “2-butoxy-7-((5-methyl-6-(2,7-diazaspiro[3.5]nonan-7-yl)pyridin-3-yl)methyl)imidazo[2,1-f][1,2,4]triazin-4-amine [Compound B86]”, it took 202 nM to reach a half-maximal effect (EC50).

As to `CCCCOc1nc(N)c2ncc(Cc3cnc(N4CCC(C(=O)N(C)C)CC4)c(C)c3)n2n1` [Compound B95, 1-(5-((4-amino-2-butoxyimidazo[2,1-f][1,2,4]triazin-7-yl)methyl)-3-methylpyridin-2-yl)-N,N-dimethylpiperidine-4-carboxamide], a half-maximal effect (EC50) was put at 4380 nM.

With `Cc1cc(Cc2cnc3c(N)nc(OCC4CCOC4)nn23)cnc1N1CCNCC1` (stereo not shown) [Compound B193, 7-((5-methyl-6-(piperazin-1-yl)pyridin-3-yl)methyl)-2-((tetrahydrofuran-3-yl)methoxy)imidazo[2,1-f][1,2,4]triazin-4-amine], the half-maximal effective concentration (EC50) was 902 nM.

Take `CCCCOc1nc(N)c2ncc(Cc3cnc(N4CCN(C(C)=O)CC4)c(C)c3)n2n1` [Compound B57, 1-(4-(5-((4-amino-2-butoxyimidazo[2,1-f][1,2,4]triazin-7-yl)methyl)-3-methylpyridin-2-yl)piperazin-1-yl)ethan-1-one]: it took 3800 nM to reach a half-maximal effect (EC50).

Molecule `CCCC(C)Oc1nc(N)c2ncc(Cc3cnc(N4CCC(CN(C)C)CC4)c(C)c3)n2n1` (stereo not shown) [Compound B134, 7-((6-(4-((dimethylamino)methyl)piperidin-1-yl)-5-methylpyridin-3-yl)methyl)-2-(pentan-2-yloxy)imidazo[2,1-f][1,2,4]triazin-4-amine] came in with an EC50 of 6 nM.

On to `Cc1cc(Cc2cnc3c(N)nc(OCCC(C)C)nn23)cnc1N1CCNCC1` [Compound B22, 2-(isopentyloxy)-7-((5-methyl-6-(piperazin-1-yl)pyridin-3-yl)methyl)imidazo[2,1-f][1,2,4]triazin-4-amine], for which the EC50 was determined as 496 nM.

The molecule `CCCCOc1nc(N)c2ncc(Cc3cnc(N4CCC(CN5CCCC5)CC4)c(C)c3)n2n1` [Compound B121, 2-butoxy-7-((5-methyl-6-(4-(pyrrolidin-1-ylmethyl)piperidin-1-yl)pyridin-3-yl)methyl)imidazo[2,1-f][1,2,4]triazin-4-amine] gave an EC50 of 31 nM.

Consider `CCCC(CCC)Oc1nc(N)c2ncc(Cc3cnc(N4CCN(C(=O)CN(C)C)CC4)c(C)c3)n2n1` [Compound B188, 1-(4-(5-((4-amino-2-(heptan-4-yloxy)imidazo[2,1-f][1,2,4]triazin-7-yl)methyl)-3-methylpyridin-2-yl)piperazin-1-yl)-2-(dimethylamino)ethan-1-one], for which the half-maximal effective concentration (EC50) was determined as 3.6 nM.

With `CCCCOc1nc(N)c2ncc(Cc3ccc(N4CCNCC4)c(OC)c3)n2n1` [Compound B45, 2-butoxy-7-(3-methoxy-4-(piperazin-1-yl)benzyl)imidazo[2,1-f][1,2,4]triazin-4-amine], the response was half-maximal at 418 nM (EC50).

In the case of `CCC(CC)Oc1nc(N)c2ncc(Cc3cnc(N4CCNCC4)c(C)c3)n2n1` [Compound B162, 7-((5-methyl-6-(piperazin-1-yl)pyridin-3-yl)methyl)-2-(pentan-3-yloxy)imidazo[2,1-f][1,2,4]triazin-4-amine], the EC50 was 8 nM.

The molecule `COCCOCCOc1nc(N)c2ncc(Cc3cnc(N4CCNCC4)c(C)c3)n2n1` [Compound B119, 2-(2-(2-methoxyethoxy)ethoxy)-7-((5-methyl-6-(piperazin-1-yl)pyridin-3-yl)methyl)imidazo[2,1-f][1,2,4]triazin-4-amine] came in with an EC50 of over 10000 nM.

`CCCC(CCO)Oc1nc(N)c2ncc(Cc3cnc(N4CCN(C(=O)CNC)CC4)c(C)c3)n2n1` (stereo not shown) [Compound B218, 1-(4-(5-((4-amino-2-((1-hydroxyhexan-3-yl)oxy)imidazo[2,1-f][1,2,4]triazin-7-yl)methyl)-3-methylpyridin-2-yl)piperazin-1-yl)-2-(methylamino)ethan-1-one] came in with a concentration for a half-maximal effect (EC50) of 46 nM.
